Active and inactive are the calls of the source.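 Rule for the calls: active = half-maximal IDE activation concentration EC50 of 10 µM or lower; inactive = EC50 above 10 µM.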

In this test the target is Insulin-degrading enzyme (Homo sapiens) (UniProt P14735). Nature of the test: activators of recombinant IDE enzyme, dose response, counter-screen for IDE activator project, biochemical, fluorescence polarization (AID 588681). To be noted: FAbetaB cleavage. (A counterscreen serves to expose hits that act by an unwanted route or on another target.)
Insulin-degrading enzyme (Homo sapiens), sequence (P14735 whole entry, looked up): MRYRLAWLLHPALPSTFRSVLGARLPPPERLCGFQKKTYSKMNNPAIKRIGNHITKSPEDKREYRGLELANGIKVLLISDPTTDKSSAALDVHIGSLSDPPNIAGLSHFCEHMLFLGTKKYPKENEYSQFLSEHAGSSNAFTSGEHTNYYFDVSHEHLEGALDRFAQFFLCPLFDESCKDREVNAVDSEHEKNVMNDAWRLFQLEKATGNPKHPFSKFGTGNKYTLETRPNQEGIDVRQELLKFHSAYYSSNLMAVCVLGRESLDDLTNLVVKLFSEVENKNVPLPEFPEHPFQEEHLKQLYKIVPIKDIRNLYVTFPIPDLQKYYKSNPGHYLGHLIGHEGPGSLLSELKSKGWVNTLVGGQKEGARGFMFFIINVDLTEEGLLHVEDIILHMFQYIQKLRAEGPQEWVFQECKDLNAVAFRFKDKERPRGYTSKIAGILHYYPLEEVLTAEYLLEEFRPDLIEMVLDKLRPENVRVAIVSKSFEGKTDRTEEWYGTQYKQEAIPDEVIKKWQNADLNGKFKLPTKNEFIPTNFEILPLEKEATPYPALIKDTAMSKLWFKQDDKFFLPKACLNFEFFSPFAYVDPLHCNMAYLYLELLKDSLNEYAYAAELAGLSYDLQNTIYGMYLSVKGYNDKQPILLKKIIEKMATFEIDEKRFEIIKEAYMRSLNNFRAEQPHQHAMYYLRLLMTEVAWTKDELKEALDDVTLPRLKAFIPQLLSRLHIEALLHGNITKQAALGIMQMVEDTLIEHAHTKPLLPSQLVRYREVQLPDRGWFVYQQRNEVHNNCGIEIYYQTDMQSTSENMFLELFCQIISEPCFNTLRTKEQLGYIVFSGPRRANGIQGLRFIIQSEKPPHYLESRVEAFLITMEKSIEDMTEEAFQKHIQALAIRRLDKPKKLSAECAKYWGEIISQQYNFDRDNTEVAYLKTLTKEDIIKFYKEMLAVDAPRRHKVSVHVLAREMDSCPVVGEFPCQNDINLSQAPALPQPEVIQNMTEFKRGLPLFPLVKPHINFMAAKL

Broadly, the EC50 is the concentration at which the effect is half-maximal. `C#CCOCCOCCOCCNc1nc(N2CCN(C(=O)CCCCCCCCCCNC(=O)[C@H](CO)n3cc(CCCSC)nn3)CC2)nc(N2CCN(C(=O)CCCCCCCCCCNC(=O)[C@H](CCCCN)n3cc(CCO)nn3)CC2)n1`: the EC50 was > 54.7 µM (inactive).

`C#CCOCCOCCOCCNc1nc(N2CCN(C(=O)CCCCCCCCCCNC(=O)Cn3cc(CCCCCN)nn3)CC2)nc(N2CCN(C(=O)CCCCCCCCCCNC(=O)Cn3cc(C[C@@H](C)O)nn3)CC2)n1`: the EC50 is > 54.7 µM (inactive). As for `C#CCOCCOCCOCCNc1nc(N2CCN(C(=O)CCCCCCCCCCNC(=O)Cn3cc(C[C@@H](C)O)nn3)CC2)nc(N2CCN(C(=O)CCCCCCCCCCNC(=O)[C@H](CCCN=C(N)N)n3cc(C[C@@H](C)CC)nn3)CC2)n1`, the EC50 is 6.55 µM. To `C#CCOCCOCCOCCNc1nc(N2CCN(C(=O)CCCCCCCCCCNC(=O)Cn3cc(CCCCCN)nn3)CC2)nc(N2CCN(C(=O)CCCCCCCCCCNC(=O)[C@H](CO)n3cc(CCCSC)nn3)CC2)n1` belongs “inactive”; to `C#CCOCCOCCOCCNc1nc(N2CCN(C(=O)CCCCCCCCCCNC(=O)Cn3cc(CCCCCN)nn3)CC2)nc(N2CCN(C(=O)CCCCCCCCCCNC(=O)[C@H]([C@@H](C)CC)n3cc(CCCCCN)nn3)CC2)n1`, 8.55 µM. As for `C#CCOCCOCCOCCNc1nc(N2CCN(C(=O)CCCCCCCCCCNC(=O)[C@H](CCCCN)n3cc(CCO)nn3)CC2)nc(N2CCN(C(=O)CCCCCCCCCCNC(=O)[C@H](CCCN=C(N)N)n3cc(C[C@@H](C)CC)nn3)CC2)n1`, the figure is 7.08 µM; as for `C#CCOCCOCCOCCNc1nc(N2CCN(C(=O)CCCCCCCCCCNC(=O)[C@@H](CCSC)n3cc(CCO)nn3)CC2)nc(N2CCN(C(=O)CCCCCCCCCCNC(=O)[C@H](CO)n3cc(CCCCCN)nn3)CC2)n1`, “inactive”; as for `C#CCOCCOCCOCCNc1nc(N2CCN(C(=O)CCCCCCCCCCNC(=O)[C@H]([C@@H](C)CC)n3cc(CCCCCN)nn3)CC2)nc(N2CCN(C(=O)CCCCCCCCCCNC(=O)[C@H]([C@@H](C)CC)n3cc(CCCCN=C(N)N)nn3)CC2)n1`, 2.32 µM.
